Common to all, as to experiment: growth of human tumour cells (NCI), 48 h
In assay [1] the test system is SK-MEL-2 melanoma.
For assay [2], the system named is HCC-2998 colon.
In assay [3] the test system is LOX IMVI melanoma.
The test system of assay [4] is 786-0 renal.
Assay [5] concerns IGROV1 ovarian.
Assay [6] relates to HCT-15 colon.
In assay [7] the test system is MDA-MB-435.
The subject of assay [8] is K-562 leukemia.
Assay [9] concerns OVCAR-8 ovarian.
Assay [10] relates to SNB-75 CNS.
Assay [11] relates to SF-295 CNS.
The subject of assay [12] is HS 578T breast.
Assay [13] has as its system SK-MEL-28 melanoma.
In assay [14] the test system is HL-60(TB) leukemia.
Assay [15] deals with PC-3 prostate.
Assay [16] has as its system OVCAR-3 ovarian.
The subject of assay [17] is TK-10 renal.
For assay [18], the system named is HT29 colon.
For assay [19], the system named is OVCAR-4 ovarian.
The test system of assay [20] is CCRF-CEM leukemia.

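Step 1: Grow cells in 96-well plates. Step 2: Expose to compound for 48 hours at 5 concentrations. Step 3: Interpolate endpoints linearly; if unreached, use highest concentration. The concentration for full growth arrest is given as TGI.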 Some results are limits rather than exact numbers.

In the case of `CCOC(=O)Cc1nc2sc(S(N)(=O)=O)nn2c1Br`, the TGI in assay [1] is > 100 µM; in assay [2] it was 48.1 µM; in [3] it was 44.3 µM; in assay [4], 52.1 µM; in assay [5] it was 90.8 µM; in assay [6] it was 77.5 µM. Besides, the TGI in assay [7] is > 100 µM; in assay [8], > 100 µM; in [9], 47.7 µM; in assay [10], > 100 µM; in assay [11], > 100 µM; in assay [12] it was > 100 µM. The TGI in assay [13] was 96.2 µM; in [14], > 100 µM; in assay [15], 63.9 µM; in assay [16] it was 98.5 µM; in [17], > 100 µM; in assay [18], 45.1 µM.

Consider `Cc1occc1C(=S)Nc1ccc(Cl)c(C(=O)OC(C)C2CC2)c1` (stereo unspecified), for which the TGI came out at 38.4 µM in assay [1]; 39.5 µM in assay [2]; 49.5 µM in assay [3]; 52.5 µM in assay [4]; 35.2 µM in [5]; 41.2 µM in [6]. Moreover, the TGI in [19] is 40.5 µM; in assay [7] it was 66.2 µM; in [9], 43.2 µM; in assay [10], 68.9 µM; in [11], 39 µM; in [12] it was 69.1 µM. Besides, the TGI was > 100 µM in assay [13]; 54.1 µM in assay [14]; 41.3 µM in assay [15]; 35.3 µM in assay [16]; > 100 µM in [17]; > 100 µM in assay [20]. In [18], this compound came in with a TGI of 49 µM.

Take `CCCCCCCCCCCCOP(=O)(O)OCC(N)C(=O)O` (stereo unspecified): the TGI in assay [1] is 51.8 µM; in assay [2] it was > 100 µM; in assay [3], 64 µM; in assay [4] it was > 100 µM; in assay [5] it was > 100 µM; in assay [6], 36.6 µM. Moreover, the TGI in assay [19] is > 100 µM; in assay [7], 36.8 µM; in assay [8] it was > 100 µM; in [9], > 100 µM; in [10] it was 51.9 µM; in assay [11], 41.7 µM. For the same compound, the TGI in assay [12] is 33.3 µM; in [13], > 100 µM; in assay [14] it was 36.8 µM; in assay [15], 35.1 µM; in assay [16] it was 33.2 µM; in assay [17], 53 µM. Also, in [18], the TGI was > 100 µM.

`CC1OC(O[C@H]2C3C=CO[C@@H](OC4OC(CO)C(O)C(O)C4O)C3[C@@]3(COC(=O)/C=C/c4ccc(O)cc4)O[C@@H]23)C(O)C(O)C1O` (stereo partly specified): the TGI in assay [1], in assay [2], in [3], in [4], in [5] and in [6] was > 100 µM in each case. The TGI in assay [19], in [7], in assay [8], in assay [9], in assay [10] and in assay [11] was > 100 µM in each case. The TGI in assay [12], in assay [13], in assay [14], in assay [15], in assay [16] and in [17] was > 100 µM each time. Besides, in assay [18], the TGI was > 100 µM.

In the case of `Nc1nc(N)c2ncn(Cc3ccccc3CCl)c2n1`, the TGI in assay [1], in assay [4], in assay [5], in assay [6], in assay [19] and in assay [7] was > 100 µM in each case. The TGI in assay [8], in [9], in assay [10], in assay [11], in assay [12] and in assay [13] was > 100 µM each time. Moreover, the TGI in assay [14], in [15], in assay [16], in [17], in assay [20] and in [18] was > 100 µM each time.

In the case of `CCSc1cc(=O)n(C)c(=O)n1C`, the TGI in assay [1], in [2], in [3], in assay [4], in assay [6] and in [19] was > 100 µM in each case. In addition, the TGI in assay [7], in assay [9], in assay [10], in assay [11], in [12] and in assay [13] was > 100 µM throughout. Moreover, the TGI in assay [14], in [15], in [16], in assay [17], in [20] and in assay [18] was > 100 µM each time.

`N#CCCN(CCC#N)c1ccc(/C=C2\N=C(c3ccccc3)N(NC(N)=S)C2=O)cc1`: the TGI in assay [1], in [3], in assay [4], in [5], in assay [6] and in assay [19] was > 100 µM each time. For the same compound, the TGI in assay [7], in [8], in assay [9], in [11], in assay [12] and in assay [13] was > 100 µM in each case. Also, the TGI in assay [14], in assay [15], in [16], in [17], in assay [20] and in assay [18] was > 100 µM each time.

`COCOc1c(C(O[Si](C)(C)C(C)(C)C)c2cnc(Sc3ccccc3)n2C)ccc(OC)c1OC` (stereo unspecified): the TGI was 3.05 µM in assay [1]; 3.7 µM in [2]; 3.23 µM in assay [3]; 4.41 µM in assay [4]; 5.01 µM in [5]; 4.32 µM in assay [6]. The TGI came to 16.2 µM in [19]; 3.26 µM in assay [7]; 2.74 µM in [9]; 5.77 µM in assay [10]; 6.18 µM in assay [11]; 6.17 µM in [12]. Further, the TGI turned out to be 4.18 µM in assay [13]; 3.04 µM in [15]; 3.22 µM in assay [16]; 16.3 µM in assay [17]; 9 µM in [20]; 4.15 µM in assay [18].

For the compound `CN(C)c1ccccc1CN1CCCN(Cc2ccccc2N(C)C)C1c1ccncc1`, the TGI was 36.5 µM in assay [1]; 28.4 µM in [3]; 32.2 µM in assay [4]; 28.1 µM in [5]; 51.7 µM in assay [6]; 33 µM in [19]. Also, the TGI turned out to be 20.2 µM in assay [7]; 23.9 µM in assay [8]; 29 µM in assay [9]; 32.1 µM in [10]; 29.8 µM in assay [11]; 41.8 µM in assay [12]. For the same compound, the TGI in assay [13] was 23.7 µM; in [14] it was 32.4 µM; in assay [15], > 100 µM; in assay [16], 28 µM; in assay [17], 28.4 µM; in assay [18], 26.5 µM.

Regarding `O=C1CCC(=O)N1n1c(Cc2ccc(Cl)cc2)n[nH]c1=O`, the TGI in assay [1], in assay [2], in [3], in assay [4], in assay [5] and in assay [6] was > 100 µM each time. Further, the TGI in assay [19], in [7], in assay [8], in assay [9], in assay [11] and in [12] was > 100 µM each time. The TGI in assay [13], in [14], in assay [15], in assay [16], in assay [17] and in [18] was > 100 µM throughout.

Take `Cc1ccc(O)c(-c2cc(-c3cccc(Cl)c3)c(C#N)c(N)n2)c1`: the TGI in assay [1] is 31.6 µM; in assay [3], 30.8 µM; in assay [4] it was 46 µM; in assay [5] it was 24.6 µM; in assay [6] it was 28 µM; in assay [19] it was 41.3 µM. In addition, the TGI is 34.3 µM in assay [7]; 48.4 µM in [8]; > 100 µM in assay [9]; 32.6 µM in [11]; 49.7 µM in [12]; 68.6 µM in [14]. The TGI was 83.4 µM in assay [15]; > 100 µM in assay [16]; 44.6 µM in assay [17]; 55.2 µM in assay [20]; 58.3 µM in [18].

For the compound `CSCCCNC(=O)c1csc(-c2csc(C(CNC(=O)OC(C)(C)C)CNC(=O)OC(C)(C)C)n2)n1`, the TGI was 73.7 µM in [1]; > 100 µM in assay [3]; > 100 µM in [4]; > 100 µM in assay [5]; > 100 µM in [6]; > 100 µM in assay [19]. In addition, the TGI in [7], in assay [8], in [9], in [10], in assay [11] and in assay [12] was > 100 µM in each case. The TGI in assay [15] is > 100 µM; in assay [16], > 100 µM; in assay [17], > 100 µM; in assay [20], 44 µM.

For `N#C/C(=C\NC(=S)c1ccncc1)c1nc2ccccc2s1`, the TGI in assay [1], in assay [2], in [3], in assay [4], in [5] and in assay [6] was > 100 µM each time. Moreover, the TGI in [19], in assay [7], in assay [8], in assay [9], in assay [10] and in [11] was > 100 µM each time. The TGI in assay [12], in [13], in assay [14], in [15], in assay [16] and in assay [17] was > 100 µM throughout. For the same compound, the TGI in [18] was > 100 µM.

For `O=c1oc2cc(O)ccc2c(O)c1C(c1cccnc1)c1c(O)c2ccc(O)cc2oc1=O`, the TGI in assay [1], in assay [2], in [3], in assay [4], in assay [5] and in [6] was > 100 µM throughout. The TGI in assay [7], in [8], in assay [9], in [10], in assay [11] and in assay [12] was > 100 µM throughout. Also, the TGI in [13], in assay [14], in assay [15], in assay [16], in assay [17] and in assay [18] was > 100 µM in each case.

In the case of `Cn1c(-c2ccccc2)cc2c3ccsc3c3ccsc3c21`, the TGI in assay [1], in assay [2], in [3], in assay [4], in assay [5] and in assay [6] was > 100 µM each time. Further, the TGI in [19], in assay [7], in assay [9], in assay [10], in [11] and in assay [12] was > 100 µM throughout. Moreover, the TGI in assay [13], in assay [14], in assay [15], in assay [16], in [17] and in assay [18] was > 100 µM in each case.

These data come from PubChem BioAssay (NCI).
